Data from patent US9079838B2, “Ortho-phenylphenol compounds” (Dow Global Technologies LLC, priority 2011, dated 2015).

Key:
[1] = solubility in organic solvents at −10° C.; format: physicochemical; conditions: for soluble at (concentration) in AROMATIC 200: AROMATIC 200, −10° C.; for soluble at (concentration) in DMAc / soluble at (concentration) in NMP / soluble at (concentration) in dipropylene glycol dimethyl ether / soluble at (concentration) in tetralin: −10° C.
[2] = Solubility of Ex. 13 Product: 10% w/w solution in AROMATIC 200 stored in −11° C. freezer; format: physicochemical; conditions: 10% w/w in AROMATIC 200, −11° C. freezer, 2 weeks
Method: Solubility of Ex. 13 Product: A solution (10% w/w) in AROMATIC 200 was prepared at room temperature. The clear solution was placed in a −11° C. freezer for 2 weeks.

For c1ccc(-c2ccccc2OCc2ccccc2COc2ccccc2-c2ccccc2)cc1 [1,2-bis(([1,1′-biphenyl]-2-yloxy)-methyl)benzene], the “soluble at (concentration) in AROMATIC 200” value [1] was 10%, the “soluble at (concentration) in DMAc” value [1] was 10% and the “soluble at (concentration) in NMP” value [1] was 10%. The “soluble at (concentration) in dipropylene glycol dimethyl ether” value [1] was 10% and the “soluble at (concentration) in tetralin” value [1] was 10%.

For c1ccc(-c2ccccc2OCc2ccc(COc3ccccc3-c3ccccc3)cc2)cc1 [1,4-bis(([1,1′-biphenyl]-2-yloxy)-methyl)benzene], the “soluble at (concentration) in NMP” value [1] was 10% and the melting point was 140 to 142 °C.

For c1ccc(-c2ccccc2OCCCCOc2ccccc2-c2ccccc2)cc1 [1,4-bis([1,1′-biphenyl]-2-yloxy)butane], the “soluble at (concentration) in DMAc” value [1] was 10%, the “soluble at (concentration) in NMP” value [1] was 10% and the “soluble at (concentration) in dipropylene glycol dimethyl ether” value [1] was 10%. The melting point was 62 to 67 °C.

For CCCCCCCCCCCCOc1ccccc1-c1ccccc1 [2-(dodecyloxy)-1,1′-biphenyl], the “soluble at (concentration) in AROMATIC 200” value [1] was 10%, the “soluble at (concentration) in dipropylene glycol dimethyl ether” value [1] was 10% and the “soluble at (concentration) in tetralin” value [1] was 10%. It also gave a melting point of 27 to 29 °C.

For CCCCCCCCCCCCCCCCCCOc1ccccc1-c1ccccc1 [2-(octadecyloxy)-1,1′-biphenyl], the “soluble at (concentration) in tetralin” value [1] was less than 5% and the melting point was 42 to 45 °C.

For CCCCCCCCCCCCCCOc1ccccc1-c1ccccc1 [2-(tetradecyloxy)-1,1′-biphenyl], the “soluble at (concentration) in tetralin” value [1] was 7.5%.

In the case of c1ccc(-c2ccccc2OCc2ccc(-c3ccc(COc4ccccc4-c4ccccc4)cc3)cc2)cc1 [4,4′-bis(([1,1′-biphenyl]-2-yloxy)methyl)-1,1′-biphenyl], the “soluble at (concentration) in NMP” value [1] is reported as 10% and the melting point is reported as 149 to 151 °C.

With O=C(Oc1ccccc1-c1ccccc1)c1ccccc1 [Ex. 13 Product, [1,1′-biphenyl]-2-yl benzoate] the “crystallization from solution on cold storage” value [2] was “No visibly detectable crystallization occurred”.
